BindingDB's records for doi:10.1021/acsmedchemlett.9b00354 (Bristol-Myers Squibb, 2019)

Experiment: Effect on ZAP70 phosphorylation in human Jurkat cells pre-incubated for 30 mins followed by anti-CD3/CD28 stimulation measured after 10 mins
`COc1ccc2c(C(=O)Nc3ccc(NC(=O)c4nn(C5CCN(C(=O)NC(C)(C)C)CC5)c5ccccc45)cc3C)cnn2c1` showed an EC50 of 28 nM.
For `Cc1cc(=O)[nH]nc1-c1ccc(NC(=O)c2nn(C3CCN(C(=O)NC(C)(C)C)CC3)c3ccccc23)cc1Cl`, the EC50 was 4050 nM.
Work on `Cc1cc(NC(=O)c2nn(C3CCN(C(=O)CC(C)(C)C#N)CC3)c3ccccc23)ccc1NC(=O)c1cnn2ccccc12` yielded an EC50 of 88 nM.
In the case of `CC(C)(C)NC(=O)N1CC(Cn2nc(C(=O)Nc3ccc(-c4ccc(=O)[nH]n4)c(Cl)c3)c3ccccc32)C1`, the EC50 is reported as 7900 nM.
Work on `CCc1cc(NC(=O)c2nn(C3CCN(C(=O)NC(C)(C)C)CC3)c3ccccc23)ccc1-c1n[nH]c(=O)cc1C` yielded an EC50 of 2000 nM.
For `CCc1cc(NC(=O)c2nn(C3CCN(C(=O)NC(C)(C)C)CC3)c3ccccc23)ccc1-c1n[nH]c(=O)c(C)c1C`, the EC50 was 420 nM.
Molecule `COc1ccc2c(C(=O)Nc3ccc(NC(=O)c4nn(C5CCN(C(=O)CC(C)(C)C#N)CC5)c5ccc(F)cc45)cc3Cl)cnn2c1` has an EC50 of 41 nM.
`CC(C)(C)NC(=O)N1CCC(n2nc(C(=O)Nc3ccc(-c4ccc(=O)[nH]n4)c(Cl)c3)c3ccccc32)CC1` showed an EC50 of 5700 nM.
In the case of `CC(C)(C)NC(=O)N1CCC(n2nc(C(=O)Nc3ccc(NC(=O)c4cnn5ccccc45)cc3)c3ccccc32)CC1`, the EC50 is reported as 1400 nM.
With `CCc1cc(NC(=O)c2nn(C3CCN(C(=O)NC(C)(C)C)CC3)c3ccccc23)ccc1-c1cc(C)c(=O)[nH]n1` the EC50 was 2700 nM.
`CC(C)(C)NC(=O)N1CCC(n2nc(C(=O)Nc3ccc(NC(=O)c4cnn5ccccc45)c(Cl)c3)c3ccccc32)CC1` gave an EC50 of 49 nM.
Molecule `COc1ccc2c(C(=O)Nc3ccc(NC(=O)c4nn(C)c5ccccc45)cc3C)cnn2c1` has an EC50 of over 20000 nM.
`Cc1cc(NC(=O)c2nn(C3CCN(C(=O)NC(C)(C)C)CC3)c3ccccc23)ccc1NC(=O)c1cnn2ccccc12` showed an EC50 of 42 nM.
Molecule `COc1ccc2c(C(=O)Nc3ccc(NC(=O)c4nn(C5CCN(C(=O)NC(C)(C)C)CC5)c5ccc(F)cc45)cc3Cl)cnn2c1` has an EC50 of 56 nM.
